Results reported in patent US10307424B2, “Drug with hepatoprotective activity” (priority 2015, dated 2019).

What was measured:
[1] = tested on: patients with toxic liver damage, alcoholic hepatitis, alcoholic liver disease (fatty hepatosis), alcoholic liver cirrhosis; test: Efficacy of derivatives No. 1 and No. 2 in patients with liver disease (decrease in ALT, ASAT, GGTP); type: in vivo, patients (men and women); settings: of 30 patients
Source text: The study of the efficacy of derivatives No. 1 and No. 2 was additionally carried out with the participation of patients (men and women aged 25 to 60 years) with the following diagnoses: toxic liver damage, alcoholic hepatitis, alcoholic liver disease (fatty hepatosis), alcoholic liver cirrhosis.
Inclusion criteria: increased levels of alanine aminotransferase (ALT), aspartate aminotransferase (ASAT), gamma glutaminetransferase (GGTP) at least 2 times the upper limit of the normal value.
Patients of the experimental group (30 persons) adhibited derivative No. 1 in the form of capsules containing 250 mg of the drug in a total dose of 1000 mg/day.
Patients of the control group (9 persons) adhibited placebo (capsules filled with chalk).
Patients of the experimental group (30 persons) adhibited derivative No. 2 in the form of lyophilisate for IV injection containing 50 mg of the drug in a total dose of 300 mg/day.
Patients of the control group (10 persons), were administered a 0.9% solution of NaCl as a placebo.

[2] = tested on: toxic hepatitis modelled by combined administration of dichloroethane and acetaminophen; test: Combined effect of subject compounds and known hepatic drugs, toxic hepatitis by dichloroethane and acetaminophen (500 and 500 mg/kg); type: in vivo; settings: untreated control 10
Description: Also, the combined effect of the subject compounds and known drugs for the treatment of hepatic diseases was examined.
(§1) For the modeling of toxic hepatitis, the combined administration of dichloroethane and acetaminophen in doses of 500 and 500 mg/kg, respectively, was used. After 10 days all experimental animals confirmed the presence of toxic hepatitis according to the morphological pattern of the liver.

[3] = tested on: Acute toxic hepatitis in rats induced by carbon tetrachloride (CCl4); test: Hepatoprotective activity in rats with acute toxic hepatitis induced by CCl4; type: in vivo, Wistar rats; settings: 25 mg/kg; for Survivability of the animals by day 28: Wistar rats; for Body weight of the animals by the 20th day: surviving animals
Description: The animals were in standard housing conditions under natural light conditions, with free access to water and food. Acute toxic hepatitis in rats was induced by means of intragastric administration of 50% solution of carbon tetrachloride (CCl 4) in olive oil at a dose of 1 ml/kg for 6 days. […]
The tested preparations were administered orally in the form of a suspension in olive oil once a day after the formation of the model pathology or intravenously at a dose of 25 mg/kg. The weight dynamics of the rats were determined on Sartorius scale.

[4] = tested on: toxic hepatitis modelled by combined administration of dichloroethane and acetaminophen; test: Toxic hepatitis caused by dichloroethane and acetaminophen (300 and 250 mg/kg), treatment with derivative No. 4; type: in vivo, laboratory rats; settings: for Cytochrome B5 / Cytochrome P450 / Glycogen / Reduced glutathione: liver
Description: The efficacy of derivative No. 4 on additional parameters was studied in laboratory rats.
as §1, with “of 300” for “of 500”, “and 250” for “and 500”, “liver. In the untreated control group, by the 10th day of the study, 4 animals out of 10 died.” for “liver.”
From that time, for 10 days, the experimental animals were administered, once a day, derivative No. 4 (50 mg/kg, intragastrically in starch mucus) or derivative No. 4 (10 mg/kg, IV, into the tail vein).

[5] = lyophilisate for IV injection, total dose 300 mg/day, control 1 of 10
[6] = Intraventricular administration, once a day
[7] = Enteral administration, 50 mg/kg intragastrically once a day, day 10
[8] = Parenteral administration, 10 mg/kg IV once a day, day 10
[9] = capsules 250 mg, total dose 1000 mg/day, control 1 of 9

In the case of `O=C1NC(O)(O)C(=N[O-])C(=O)N1c1ccc(Br)cc1.[Na+]` [Derivative 2], the “The number of patients in the group with a decrease in ALT by 30% or more” value [1, 5] is reported as 17, the “The number of patients in the group with a decrease in ASAT by 30% or more” value [1, 5] is reported as 19 and the “The number of patients in the group with a decrease in GGTP by 30% or more” value ([1]; lyophilisate for IV injection, total dose 300 mg/day, control 2 of 10) is reported as 25. For the same molecule, the “Survivability by the 10th day” value [2] was 40%.
For `NCCCO.O=C1NC(O)(O)C(=NO)C(=O)N1c1ccc(Br)cc1` [Derivative 5], the “Survivability of the animals by day 28” value ([3]; Intravenous administration) was 60%, the “Body weight of the animals by the 20th day” value (shortened to “Body weight of the animals”) ([3]; Intravenous administration) was 168 ± 7% and the “Survivability of the animals by day 28” value [3, 6] was 61%. For the same molecule, the “Body weight of the animals” value [3] was 161 ± 9%.
With `C[C@H](CCC(=O)O)[C@H]1CC[C@H]2[C@@H]3[C@@H](O)C[C@@H]4C[C@H](O)CC[C@]4(C)[C@H]3CC[C@]12C` [Ursodeoxycholic acid, ursodeoxycholic acid, reference compound] the “Survivability by the 10th day” value [2] was 20%.
With `C[S+](CC[C@H](N)C(=O)[O-])C[C@H]1O[C@@H](n2cnc3c(N)ncnc32)[C@H](O)[C@@H]1O` (some centres unmarked) [Prototype, S-Adenosyl methionine-ademetionine, reference compound] the “Survivability of the animals by day 28” value ([3]; Intravenous administration) was 48%, the “Body weight of the animals” value ([3]; Intravenous administration) was 159 ± 4% and the “Survivability of the animals by day 28” value [3, 6] was 46%. For the same molecule, the “Body weight of the animals” value [3] was 160 ± 4% and the “Survivability by the 10th day” value [2] was 30%.
`NC(CO)(CO)CO.O=C1NC(O)(O)C(=NO)C(=O)N1c1ccc(Br)cc1` [Derivative 4] was tested, and the “-SH-group” value [4, 7] was 900 ± 50 μmol/100 ml, the ALP [4, 7] was 0.73 ± 0.09 μkat/l and the ALT [4, 7] was 0.54 ± 0.08 μkat/l. The ASAT [4, 7] was 0.72 ± 0.06 μkat/l, the Body weight [4, 7] was 180 ± 15 g and the “Bromsulfalein, at the 10th minute after the introduction” value [4, 7] was 19.3 ± 1.1 mg %. It also gave a Ceruloplasmin [4, 7] of 520 ± 50 mg/L, a ChE [4, 7] of 2.1 ± 0.2 µmol/g/min and a Cholesterol [4, 7] of 1.58 ± 0.21 mmol/L. It also gave a Glucose [4, 7] of 4.5 ± 0.4 mmol/L, a Hexenalum sleep [4, 7] of 27.0 ± 1.5 min and an LDH [4, 7] of 6.82 ± 0.34 mmol/h/L. For the same molecule, the Prothrombin time [4, 7] was 43 ± 5 s, the Timole test [4, 7] was 2.86 ± 0.44 units of turbidity and the Total lipids [4, 7] was 3.2 ± 0.1 g/L. For the same molecule, the Total protein [4, 7] was 52 ± 5 g/L, the “-SH-group” value [4, 8] was 640 ± 50 μmol/100 ml and the ALP [4, 8] was 0.82 ± 0.12 μkat/l. It also gave an ALT [4, 8] of 0.69 ± 0.06 μkat/l, an ASAT [4, 8] of 0.76 ± 0.08 μkat/l and a Body weight [4, 8] of 185 ± 5 g. For the same molecule, the “Bromsulfalein, at the 10th minute after the introduction” value [4, 8] was 23.0 ± 1.6 mg %, the Ceruloplasmin [4, 8] was 580 ± 80 mg/L and the ChE [4, 8] was 2.2 ± 0.2 µmol/g/min. It also gave a Cholesterol [4, 8] of 1.70 ± 0.26 mmol/L, a Glucose [4, 8] of 4.6 ± 0.2 mmol/L and a Hexenalum sleep [4, 8] of 29.5 ± 1.5 min. The LDH [4, 8] was 8.24 ± 0.35 mmol/h/L, the Timole test [4, 8] was 3.22 ± 0.53 units of turbidity and the Total lipids [4, 8] was 2.9 ± 0.2 g/L. The Total protein [4, 8] was 48 ± 4 g/L, the Death of animals ([4]; enterally or parenterally injected, untreated control: 4 animals out of 10 died by the 10th day) was “not a single animal died” and the “Cytochrome B5” value [4, 7] was 0.54 ± 0.07 mmol/mg protein ×10^−4. The “Cytochrome P450” value [4, 7] was 0.98 ± 0.06 mmol/mg protein ×10^−4, the Glycogen [4, 7] was 1600 ± 100 mg % and the Reduced glutathione [4, 7] was 165 ± 10 mg %. The “Cytochrome B5” value [4, 8] was 0.68 ± 0.04 mmol/mg protein ×10^−4, the “Cytochrome P450” value [4, 8] was 1.12 ± 0.03 mmol/mg protein ×10^−4 and the Glycogen [4, 8] was 1500 ± 200 mg %. The Reduced glutathione [4, 8] was 170 ± 10 mg % and the “Survivability by the 10th day” value [2] was 40%.
For `O=C1NC(O)(O)C(=NO)C(=O)N1c1ccc(Br)cc1` [Derivative 1, 3-(4-bromophenyl)-6,6-dihydroxy-5-hydroxyiminohexahydro-2,4-pyrimidinedione], the “The number of patients in the group with a decrease in ALT by 30% or more” value [1, 9] was 23, the “The number of patients in the group with a decrease in ASAT by 30% or more” value [1, 9] was 23 and the “The number of patients in the group with a decrease in GGTP by 30% or more” value ([1]; capsules 250 mg, total dose 1000 mg/day, control 2 of 9) was 25. The “Survivability of the animals by day 28” value ([3]; Intravenous administration) was 57%, the “Body weight of the animals” value ([3]; Intravenous administration) was 171 ± 5% and the “Survivability of the animals by day 28” value ([3]; once a day) was 59%. The “Survivability by the 10th day” value [2] was 40%.
